Laboratory results: patent publication US20260183393A1, “IMMUNOSUPPRESSANT-RESISTANT MODIFIED ALLOGENEIC MODIFIED IMMUNE CELLS AND METHODS FOR USE THEREOF” (Beam Therapeutics Inc., priority 2023, published 2026)

System: T cell-driven rejection of allogeneic HLA-I^+ CAR-T cells
Test: HIS mouse-driven allorejection model, 4CAR-T cell persistence
Format: in vivo, human immune system (HIS) mice
Details: for rejection of peripheral allogeneic HLA^+ CAR-T cells: RPM 1 mg kg-1 or TAC 10 mg kg-1 daily intraperitoneal for 2 weeks, 1- and 2-weeks post-treatment initiation
Description: Female (aged 6-8 weeks) NOD.Cg-Prkdc^scidIL2rg^tm1Wjl/SzJ (NSG) mice (Jackson Laboratory) were maintained in a pathogen-free facility. Briefly, to generate BLT humanized mice, NSG mice were anesthetized and whole-body irradiated (2 Gy), and then implanted with 1 mm^3 fragments of human fetal liver and thymus tissue beneath the murine kidney capsule. Following, 1×10^5 autologous fetal liver-derived CD34^+ hematopoietic stem cells (HSCs) were intravenously injected within 6 hours of transplantation. Beam Therapeutics commercially obtained female NOD-Prkdc^em26Ca52 IL2rg^em26CD22/NjuCrl (NCG) CD34^+ humanized (huNCG) mice from Charles River and female (aged 6-8 weeks) NSG-Tg(IL15)1Sz/SzJ (NSG-IL15tg) mice from Jackson Laboratory. Mice were maintained in a pathogen-free facility at CRADL. Briefly, huCD34-NCG mice were generated from female (aged 4-6 weeks) NCG mice that were myeloablated and then intravenously infused with human umbilical cord blood-derived CD34^+ stem cells from a qualified source. Humanized NK (huNK) mice were generated by supplementing the water of NSG-IL-15tg with Baytril (Bayer) for 1 week followed by whole-body irradiation (2 Gy). 5×10^6 primary human CD56^+ NK cells were then intravenously injected 24 hours later and permitted to engraft. At both facilities, mice were housed in microisolator cages and fed autoclaved food and water. Animal rooms were maintained at 72±2° F., 30-70% relative humidity and were on a 12:12 h light/dark cycle. Human reconstitution was assessed from 12-17 weeks post-transplant in BLT and huNCG mice, and 2-3 weeks post-transplant in huNK mice. […]
For the studies described in FIGS. 16A to 16J, BLT mice were used Cohort #2 (n=12) and Cohort #5 (n=13), and huNCG mice were used in Cohort #1 (n=10), Cohort #3 (n=12) and Cohort #4 (n=10). […] Persistence of 4CAR-T cells was monitored at 1-day post-T cell infusion and weekly thereafter via blood draws from the retro-orbital sinus or submandibular vein. […]

| Structure (SMILES) | rejection of peripheral allogeneic HLA^+ CAR-T cells | cumulative allogeneic HLA^+ CAR-T cell persistence (during the treatment window and post-treatment withdrawal, AUC) |
| --- | --- | --- |
| CO[C@H]1C[C@@H]2CC[C@@H](C)[C@@](O)(O2)C(=O)C(=O)N2CCCC[C@H]2C(=O)O[C@H]([C@H](C)C[C@@H]2CC[C@@H](O)[C@H](OC)C2)CC(=O)[C@H](C)/C=C(\C)[C@@H](O)[C@@H](OC)C(=O)[C@H](C)C[C@H](C)/C=C/C=C/C=C/1C [rapamycin, Rapamycin] | significantly mitigated rejection |  |
| C=CC[C@@H]1/C=C(\C)C[C@H](C)C[C@H](OC)[C@H]2O[C@@](O)(C(=O)C(=O)N3CCCC[C@H]3C(=O)O[C@H](/C(C)=C/[C@@H]3CC[C@@H](O)[C@H](OC)C3)[C@H](C)[C@@H](O)CC1=O)[C@H](C)C[C@@H]2OC [tacrolimus, Tacrolimus] | significantly mitigated rejection | improved cumulative allogeneic HLA^+ CAR-T cell persistence |
